Key:
Settings in all cases: Compound concentration 1000.0 nM
[1] = target: Phosphatidylinositol 3-kinase C2 domain-containing subunit gamma (Homo sapiens) (UniProt O75747)
[2] = target: Serine/threonine-protein kinase TAO3 (Homo sapiens) (UniProt Q9H2K8)
[3] = target: Phosphatidylinositol 5-phosphate 4-kinase type-2 gamma (Homo sapiens) (UniProt Q8TBX8)
[4] = system: Epidermal growth factor receptor (Homo sapiens), P00533 [UNDEFINED MUTATION]
[5] = target: Epithelial discoidin domain-containing receptor 1 (Homo sapiens) (UniProt Q08345)
[6] = target: Serine/threonine-protein kinase DCLK3 (Homo sapiens) (UniProt Q9C098)
[7] = target: Serine/threonine-protein kinase MARK2 (Homo sapiens) (UniProt Q7KZI7)
[8] = target: Inhibitor of nuclear factor kappa-B kinase subunit alpha (Homo sapiens) (UniProt O15111)
[9] = system: Epidermal growth factor receptor (Homo sapiens), P00533 [UNDEFINED MUTATION]; remark: listed apart in the source
[10] = target: Cyclin-dependent kinase 3 (Homo sapiens) (UniProt Q00526)
[11] = system: Hepatocyte growth factor receptor (Homo sapiens), P08581 [M1250T]
[12] = system: Mast/stem cell growth factor receptor Kit (Homo sapiens), P10721 [V559D,T670I]
[13] = target: Membrane-associated tyrosine- and threonine-specific cdc2-inhibitory kinase (Homo sapiens) (UniProt Q99640)
[14] = target: Serine/threonine-protein kinase BRSK2 (Homo sapiens) (UniProt Q8IWQ3)
[15] = target: Tyrosine-protein kinase JAK3 (Homo sapiens) (UniProt P52333)
[16] = target: Aurora kinase A (Homo sapiens) (UniProt O14965)
[17] = target: Epidermal growth factor receptor (Homo sapiens) (UniProt P00533)
[18] = target: Inhibitor of nuclear factor kappa-B kinase subunit beta (Homo sapiens) (UniProt O14920)
[19] = target: Death-associated protein kinase 2 (Homo sapiens) (UniProt Q9UIK4)
[20] = target: Ephrin type-B receptor 2 (Homo sapiens) (UniProt P29323)
[21] = target: AP2-associated protein kinase 1 (Homo sapiens) (UniProt Q2M2I8)
[22] = target: Receptor tyrosine-protein kinase erbB-3 (Homo sapiens) (UniProt P21860)
[23] = target: Dual specificity mitogen-activated protein kinase kinase 6 (Homo sapiens) (UniProt P52564)
[24] = target: Serine/threonine-protein kinase LATS2 (Homo sapiens) (UniProt Q9NRM7)
[25] = target: Serine/threonine-protein kinase D2 (Homo sapiens) (UniProt Q9BZL6)
[26] = target: Calcium/calmodulin-dependent protein kinase type 1 (Homo sapiens) (UniProt Q14012)
[27] = target: Maternal embryonic leucine zipper kinase (Homo sapiens) (UniProt Q14680)
[28] = target: Serine/threonine-protein kinase Nek1 (Homo sapiens) (UniProt Q96PY6)
[29] = target: Activin receptor type-1B (Homo sapiens) (UniProt P36896)
[30] = target: Mitogen-activated protein kinase 7 (Homo sapiens) (UniProt Q13164)
[31] = target: Mitogen-activated protein kinase 15 (Homo sapiens) (UniProt Q8TD08)
[32] = target: Serine/threonine-protein kinase Nek11 (Homo sapiens) (UniProt Q8NG66)
[33] = target: Ephrin type-A receptor 2 (Homo sapiens) (UniProt P29317)
[34] = target: Serine/threonine-protein kinase mTOR (Homo sapiens) (UniProt P42345)
[35] = target: Non-receptor tyrosine-protein kinase TNK1 (Homo sapiens) (UniProt Q13470)
[36] = target: Protein kinase C eta type (Homo sapiens) (UniProt P24723)
[37] = system: ALK tyrosine kinase receptor (Homo sapiens), Q9UM73 [L1196M]
[38] = target: Ephrin type-B receptor 4 (Homo sapiens) (UniProt P54760)
[39] = target: Dual specificity mitogen-activated protein kinase kinase 7 (Homo sapiens) (UniProt O14733)
[40] = target: Transient receptor potential cation channel subfamily M member 6 (Homo sapiens) (UniProt Q9BX84)
[41] = target: Death-associated protein kinase 3 (Homo sapiens) (UniProt O43293)
[42] = target: Serine/threonine-protein kinase RIO3 (Homo sapiens) (UniProt O14730)
[43] = target: Serine/threonine-protein kinase MRCK beta (Homo sapiens) (UniProt Q9Y5S2)
[44] = target: Ephrin type-A receptor 6 (Homo sapiens) (UniProt Q9UF33)
[45] = target: Mitogen-activated protein kinase 13 (Homo sapiens) (UniProt O15264)
Sequence of Mitogen-activated protein kinase 13 (Homo sapiens) (O15264 whole entry): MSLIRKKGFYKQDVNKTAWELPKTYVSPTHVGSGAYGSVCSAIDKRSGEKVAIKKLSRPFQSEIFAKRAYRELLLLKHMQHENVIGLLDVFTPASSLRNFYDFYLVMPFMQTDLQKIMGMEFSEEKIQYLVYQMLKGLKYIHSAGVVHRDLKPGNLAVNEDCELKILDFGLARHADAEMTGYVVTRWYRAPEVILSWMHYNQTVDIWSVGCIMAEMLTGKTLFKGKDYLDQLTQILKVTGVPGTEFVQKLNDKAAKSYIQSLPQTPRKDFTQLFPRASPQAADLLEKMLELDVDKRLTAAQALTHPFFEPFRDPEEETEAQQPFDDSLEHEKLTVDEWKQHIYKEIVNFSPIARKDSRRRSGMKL

Sequence of Epidermal growth factor receptor (Homo sapiens), P00533 [UNDEFINED MUTATION] (P00533 whole entry, looked up, change not shown, the tested form may be a part): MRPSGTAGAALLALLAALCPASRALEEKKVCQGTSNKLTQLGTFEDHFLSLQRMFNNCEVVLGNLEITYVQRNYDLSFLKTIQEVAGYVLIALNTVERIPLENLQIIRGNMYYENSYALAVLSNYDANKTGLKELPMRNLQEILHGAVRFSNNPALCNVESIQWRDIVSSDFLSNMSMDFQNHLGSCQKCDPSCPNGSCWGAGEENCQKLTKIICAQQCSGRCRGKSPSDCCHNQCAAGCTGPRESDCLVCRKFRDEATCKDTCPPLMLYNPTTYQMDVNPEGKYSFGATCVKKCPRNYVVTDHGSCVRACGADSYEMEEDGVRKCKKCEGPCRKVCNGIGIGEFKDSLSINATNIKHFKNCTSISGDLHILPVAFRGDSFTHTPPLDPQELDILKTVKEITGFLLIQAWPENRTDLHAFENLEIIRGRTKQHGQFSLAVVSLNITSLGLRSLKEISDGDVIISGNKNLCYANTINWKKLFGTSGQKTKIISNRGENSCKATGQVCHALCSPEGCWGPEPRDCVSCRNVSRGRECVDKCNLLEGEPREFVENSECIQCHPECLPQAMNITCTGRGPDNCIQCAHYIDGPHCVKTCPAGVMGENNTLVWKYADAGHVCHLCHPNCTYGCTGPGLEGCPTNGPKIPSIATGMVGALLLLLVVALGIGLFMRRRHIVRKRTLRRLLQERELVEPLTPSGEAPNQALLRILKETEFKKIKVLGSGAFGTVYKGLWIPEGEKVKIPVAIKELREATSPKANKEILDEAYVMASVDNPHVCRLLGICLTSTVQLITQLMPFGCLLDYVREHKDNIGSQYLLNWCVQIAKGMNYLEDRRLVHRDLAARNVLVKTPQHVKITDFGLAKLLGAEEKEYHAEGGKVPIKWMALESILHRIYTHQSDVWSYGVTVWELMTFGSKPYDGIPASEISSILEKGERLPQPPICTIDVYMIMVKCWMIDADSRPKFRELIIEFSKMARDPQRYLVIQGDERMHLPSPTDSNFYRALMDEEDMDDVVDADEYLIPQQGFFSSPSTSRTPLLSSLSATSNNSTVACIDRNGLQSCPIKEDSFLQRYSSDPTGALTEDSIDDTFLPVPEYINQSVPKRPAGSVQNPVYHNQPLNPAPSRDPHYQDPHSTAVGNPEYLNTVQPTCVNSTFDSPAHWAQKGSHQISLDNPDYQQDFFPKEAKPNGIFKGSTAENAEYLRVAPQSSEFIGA
Sequence of AP2-associated protein kinase 1 (Homo sapiens) (Q2M2I8 whole entry, looked up): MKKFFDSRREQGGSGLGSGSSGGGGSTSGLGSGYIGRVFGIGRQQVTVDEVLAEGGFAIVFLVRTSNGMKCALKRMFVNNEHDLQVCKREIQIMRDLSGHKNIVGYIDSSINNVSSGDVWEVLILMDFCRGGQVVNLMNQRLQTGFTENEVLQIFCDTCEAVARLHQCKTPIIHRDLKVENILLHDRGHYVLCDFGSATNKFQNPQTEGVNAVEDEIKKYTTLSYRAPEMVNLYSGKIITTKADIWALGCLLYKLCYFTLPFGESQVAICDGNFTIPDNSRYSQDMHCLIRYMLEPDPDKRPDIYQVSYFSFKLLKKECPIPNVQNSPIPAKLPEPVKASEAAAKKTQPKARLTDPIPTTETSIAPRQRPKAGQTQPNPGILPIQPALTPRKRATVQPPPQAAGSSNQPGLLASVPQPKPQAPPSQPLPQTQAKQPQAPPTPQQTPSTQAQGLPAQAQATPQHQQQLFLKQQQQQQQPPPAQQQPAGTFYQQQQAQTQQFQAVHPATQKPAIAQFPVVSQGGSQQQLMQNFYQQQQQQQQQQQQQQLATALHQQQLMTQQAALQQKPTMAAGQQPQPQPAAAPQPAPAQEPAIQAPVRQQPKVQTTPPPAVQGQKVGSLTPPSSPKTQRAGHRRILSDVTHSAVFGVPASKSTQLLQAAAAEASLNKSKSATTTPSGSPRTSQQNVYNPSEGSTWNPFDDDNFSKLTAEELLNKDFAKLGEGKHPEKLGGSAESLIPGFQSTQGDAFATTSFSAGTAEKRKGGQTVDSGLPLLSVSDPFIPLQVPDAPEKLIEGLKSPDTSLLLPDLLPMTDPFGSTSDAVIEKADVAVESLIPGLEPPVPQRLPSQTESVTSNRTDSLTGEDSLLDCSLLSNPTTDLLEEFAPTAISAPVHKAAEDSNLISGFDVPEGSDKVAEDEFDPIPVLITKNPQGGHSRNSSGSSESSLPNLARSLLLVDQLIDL
Sequence of Non-receptor tyrosine-protein kinase TNK1 (Homo sapiens) (Q13470 whole entry): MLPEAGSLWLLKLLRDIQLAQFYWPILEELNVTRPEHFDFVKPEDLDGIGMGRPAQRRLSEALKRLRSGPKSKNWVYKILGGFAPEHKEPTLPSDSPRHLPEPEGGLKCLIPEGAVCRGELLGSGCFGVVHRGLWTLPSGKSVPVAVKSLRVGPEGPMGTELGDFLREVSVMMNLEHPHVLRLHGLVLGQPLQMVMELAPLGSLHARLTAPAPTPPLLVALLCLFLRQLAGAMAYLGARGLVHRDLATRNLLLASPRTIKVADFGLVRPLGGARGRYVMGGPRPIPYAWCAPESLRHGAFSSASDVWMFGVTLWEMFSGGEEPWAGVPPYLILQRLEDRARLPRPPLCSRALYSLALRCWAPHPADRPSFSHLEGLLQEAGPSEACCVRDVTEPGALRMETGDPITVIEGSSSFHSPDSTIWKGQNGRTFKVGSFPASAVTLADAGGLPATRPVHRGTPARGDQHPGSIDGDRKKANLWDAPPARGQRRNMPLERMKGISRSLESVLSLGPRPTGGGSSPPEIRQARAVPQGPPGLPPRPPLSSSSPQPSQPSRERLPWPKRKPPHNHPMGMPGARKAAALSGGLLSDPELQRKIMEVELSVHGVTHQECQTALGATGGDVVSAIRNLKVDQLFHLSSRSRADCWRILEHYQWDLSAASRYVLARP
Sequence of Ephrin type-B receptor 4 (Homo sapiens) (P54760 whole entry): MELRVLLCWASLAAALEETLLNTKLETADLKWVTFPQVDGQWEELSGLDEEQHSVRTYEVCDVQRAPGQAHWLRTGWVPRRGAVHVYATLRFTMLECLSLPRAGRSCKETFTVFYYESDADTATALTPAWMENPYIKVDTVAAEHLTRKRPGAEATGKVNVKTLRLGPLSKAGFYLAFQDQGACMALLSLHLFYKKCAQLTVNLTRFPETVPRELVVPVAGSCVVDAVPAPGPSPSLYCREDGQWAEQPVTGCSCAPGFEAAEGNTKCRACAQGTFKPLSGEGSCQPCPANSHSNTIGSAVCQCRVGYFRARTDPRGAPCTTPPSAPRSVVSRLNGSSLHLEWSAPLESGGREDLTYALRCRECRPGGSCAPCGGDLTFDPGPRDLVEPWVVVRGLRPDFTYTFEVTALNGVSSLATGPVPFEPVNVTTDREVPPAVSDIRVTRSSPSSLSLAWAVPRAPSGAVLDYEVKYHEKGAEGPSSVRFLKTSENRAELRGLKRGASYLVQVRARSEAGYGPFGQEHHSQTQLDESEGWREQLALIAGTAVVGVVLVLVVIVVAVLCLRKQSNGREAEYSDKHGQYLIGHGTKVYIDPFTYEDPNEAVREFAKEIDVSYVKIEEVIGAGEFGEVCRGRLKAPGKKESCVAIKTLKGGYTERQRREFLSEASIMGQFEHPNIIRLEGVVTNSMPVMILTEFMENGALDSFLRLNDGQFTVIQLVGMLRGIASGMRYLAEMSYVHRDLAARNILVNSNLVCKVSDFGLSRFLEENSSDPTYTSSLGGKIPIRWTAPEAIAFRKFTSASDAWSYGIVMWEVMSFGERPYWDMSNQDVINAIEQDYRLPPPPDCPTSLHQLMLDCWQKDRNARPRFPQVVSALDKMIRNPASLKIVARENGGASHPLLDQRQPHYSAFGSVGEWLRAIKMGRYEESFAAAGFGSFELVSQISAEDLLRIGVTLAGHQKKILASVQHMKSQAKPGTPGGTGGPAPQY
Sequence of Serine/threonine-protein kinase BRSK2 (Homo sapiens) (Q8IWQ3 whole entry): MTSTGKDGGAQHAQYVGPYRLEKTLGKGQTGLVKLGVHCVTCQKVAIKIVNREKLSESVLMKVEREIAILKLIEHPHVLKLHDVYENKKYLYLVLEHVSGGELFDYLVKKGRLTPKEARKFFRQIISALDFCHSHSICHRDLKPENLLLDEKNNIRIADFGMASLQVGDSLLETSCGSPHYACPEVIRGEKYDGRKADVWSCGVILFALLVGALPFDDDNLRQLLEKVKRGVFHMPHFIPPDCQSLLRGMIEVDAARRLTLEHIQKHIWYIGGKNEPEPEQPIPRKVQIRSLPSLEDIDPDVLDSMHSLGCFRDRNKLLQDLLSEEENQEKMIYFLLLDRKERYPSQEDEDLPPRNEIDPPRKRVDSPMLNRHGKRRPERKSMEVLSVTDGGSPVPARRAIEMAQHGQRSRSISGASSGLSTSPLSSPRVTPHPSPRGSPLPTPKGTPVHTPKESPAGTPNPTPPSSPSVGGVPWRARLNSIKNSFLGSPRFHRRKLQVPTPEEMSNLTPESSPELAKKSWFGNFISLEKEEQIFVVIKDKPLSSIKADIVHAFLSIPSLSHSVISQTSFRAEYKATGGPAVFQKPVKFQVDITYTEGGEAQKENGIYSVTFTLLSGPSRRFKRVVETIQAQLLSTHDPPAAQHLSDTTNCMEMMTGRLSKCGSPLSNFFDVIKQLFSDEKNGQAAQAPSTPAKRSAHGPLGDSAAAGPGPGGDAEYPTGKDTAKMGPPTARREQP

CSc1cccnc1N1CCN(Cc2nc3ccccc3[nH]2)CC1 [A-769]
residual activity [1]: 95% | residual activity [2]: 93% | residual activity [3]: 81% | residual activity [4]: 100% | residual activity [5]: 100% | residual activity [6]: 100% | residual activity [7]: 100% | residual activity [8]: 98% | residual activity [9]: 100% | residual activity [10]: 100% | residual activity [11]: 98% | residual activity [12]: 100% | residual activity [13]: 100% | residual activity [14]: 100% | residual activity [15]: 100% | residual activity [16]: 74% | residual activity [17]: 100% | residual activity [18]: 86% | residual activity [19]: 100% | residual activity [20]: 99% | residual activity [21]: 100% | residual activity [22]: 90% | residual activity [23]: 100% | residual activity [24]: 94% | residual activity [25]: 100% | residual activity [26]: 100% | residual activity [27]: 46% | residual activity [28]: 100% | residual activity [29]: 100% | residual activity [30]: 100% | residual activity [31]: 82% | residual activity [32]: 79% | residual activity [33]: 100% | residual activity [34]: 100% | residual activity [35]: 84% | residual activity [36]: 100% | residual activity [37]: 100% | residual activity [38]: 100% | residual activity [39]: 92% | residual activity [40]: 100% | residual activity [41]: 100% | residual activity [42]: 100% | residual activity [43]: 100% | residual activity [44]: 100% | residual activity [45]: 100%

c1ccc(N2CCN(Cc3nc4ccccc4[nH]3)CC2)nc1 [ABT-724]
residual activity [1]: 100% | residual activity [2]: 86% | residual activity [3]: 86% | residual activity [4]: 90% | residual activity [5]: 100% | residual activity [6]: 93% | residual activity [7]: 100% | residual activity [8]: 100% | residual activity [9]: 100% | residual activity [10]: 100% | residual activity [11]: 100% | residual activity [12]: 95% | residual activity [13]: 100% | residual activity [14]: 100% | residual activity [15]: 100% | residual activity [16]: 89% | residual activity [17]: 99% | residual activity [18]: 100% | residual activity [19]: 86% | residual activity [20]: 98% | residual activity [21]: 100% | residual activity [22]: 91% | residual activity [23]: 100% | residual activity [24]: 75% | residual activity [25]: 91% | residual activity [26]: 100% | residual activity [27]: 100% | residual activity [28]: 100% | residual activity [29]: 85% | residual activity [30]: 100% | residual activity [31]: 100% | residual activity [32]: 100% | residual activity [33]: 100% | residual activity [34]: 100% | residual activity [35]: 59% | residual activity [36]: 89% | residual activity [37]: 97% | residual activity [38]: 100% | residual activity [39]: 100% | residual activity [40]: 100% | residual activity [41]: 91% | residual activity [42]: 100% | residual activity [43]: 100% | residual activity [44]: 100% | residual activity [45]: 100%
